Data on 1 compound can be found in US9655942B2, “Medical formulation for treating hypercholesterolemia” (priority 2012, dated 2017).

Test [1] has as its system patients suffering from increased low density lipoprotein (LDL) levels. The experiment in a line: Example 2: blood level effects (cholesterol, HDL, LDL, non-HDL, risk factor, triglycerides) after three months. Particulars: for HDL / LDL / Non-HDL cholesterol / Total cholesterol / Triglycerides: group value; for Risk factor: total cholesterol blood level divided by HDL blood level. The format is in vivo, human. As for the experimental part: Especially, the present invention relates to the present medical formulations for recuperation of vascular walls, lowering low density lipoprotein blood levels, lowering the viscosity of blood, lowering blood pressure, and/or increasing high density lipoprotein levels. Preferably, the present invention relates to the present medical formulation for reducing the risk factor in humans, or patients, at risk of hypercholesterolemia, wherein the risk factor is determined by the total cholesterol blood level divided by the HDL blood level.
(§1) As control, group 1 of 5 patients suffering from increased low density lipoprotein (LDL) levels were treated for three months with a formulation comprising, as daily dose 11.40 mg extract of lovastatin.
(§2) A group 2 of 14 patients suffering from increased low density lipoprotein (LDL) levels were treated for three months with a formulation comprising, as daily dose: • 4.80 mg bark extract of cinnamomum zeylanicum; • 24.20 mg fibre extract of Pinus pinaster; • 24.00 mg bark extract Saccharum officinarum; • 11.40 mg lovastatin; • 1.2 mg leave extract of Taraxacum officinale; • 16 mg leave extract of Camellia sinensis; • 20 mg nicotinamide; • 14 mg 50% alpha tocopherol; • 60 mg coenzyme Q10; • 37.80 mg fish oil comprising 19.2 wt % eicosapentaenoic acid and 12.9 wt % docosahexanoic acid; • 60.00 mg beta-glucan; and • 1 mg cholecalciferol.
(§3) The above ingredients were divided in two capsules for daily intake. The capsules were composed of gelatin. One capsule was taken during breakfast; the other was taken during dinner.

The test system is the same in test [2]. The experiment in a line: Example 2: blood pressure after three months. Type of test: in vivo, human. As for the experimental part:
as §1, §2, §3

In the case of `CC[C@H](C)C(=O)O[C@H]1C[C@@H](C)C=C2C=C[C@H](C)[C@H](CC[C@@H]3C[C@@H](O)CC(=O)O3)[C@H]21` [lovastatin], in test [1] (change T = 0 to T = 3 months), the “HDL Δ” value is -4.0 mg/dL, the “LDL Δ” value was -23.0 mg/dL, the “Non-HDL cholesterol Δ” value is -28.0 mg/dL and the Risk factor Δ is -0.41. In test [1] (change T = 0 to T = 3 months), the “Total cholesterol Δ” value was -26.2 mg/dL and the “Triglycerides Δ” value is -19 mg/dL. In test [1] (T = 0 (before treatment)), the HDL came to 72.0 mg/dL, the LDL turned out to be 96.2 mg/dL, the Non-HDL cholesterol amounted to 129.4 mg/dL and the Total cholesterol came out at 201.4 mg/dL. For the same compound, in test [1] (T = 0 (before treatment)), the Triglycerides came to 165.8 mg/dL and the Risk factor worked out at 2.91. In test [1] (T = 3 (three months treatment)), this compound displayed an HDL of 68.0 mg/dL, an LDL of 73.2 mg/dL, a Non-HDL cholesterol of 101.4 mg/dL and a Total cholesterol of 175.2 mg/dL. Besides, in test [1] (T = 3 (three months treatment)), the Triglycerides was 146.8 mg/dL and the Risk factor turned out to be 2.5. For the same compound, the “reduction of risk factor” value in test [1] (three months treatment, stated as size of reduction) stood at 0.41. Besides, in test [2] (T = 0 (before treatment)), the Diastolic was found to be 79.2 mmHg and the Systolic is given as 120.0 mmHg. In test [2] (T = 3 (three months treatment)), the Diastolic is on record as 79.1 mmHg and the Systolic is listed as 130.0 mmHg. The “Diastolic Δ” value in test [2] (change T = 0 to T = 3 months) is reported as −0.1 mmHg.
